# Patent publication US12012394B2, “Alpha-synuclein ligands” (Washington University, priority 2018, dated 2024)
# Where “and” joins values, the source holds several entries; their conditions need not be identical. Identical values can stand only once.
# What was measured:
# [1] = biological target: Fibrils 4174 (Homo sapiens, UniProt P37840); assay: 3H radioligand competition, Fibrils 4174; format: binding; settings: hot concentration 2 nM
# Procedure: (§1) A series of compounds were synthesized and the Ki (nM) in the presence of Fibrils 4174, PD-seeded fibrils (using Tg-1-90B as the radioligand), AD Tissue 6843 and/or AD Tissue 2846 was determined. In each experiment, the “hot” concentration was 2 nM.
# [2] = biological target: T1, PD-seeded fibrils (Homo sapiens (Human), UniProt P37840); assay: Radioligand competition, PD-seeded fibrils (Tg-1-90B as radioligand); format: binding; settings: PD-seeded fibrils (Tg-1-90B radioligand); hot concentration 2 nM
# Procedure: as §1
# [3] = biological target: AD Tissue 6843; assay: 3H radioligand competition, AD Tissue 6843; format: binding; settings: hot concentration 2 nM
# Procedure: as §1
# [4] = biological target: AD Tissue 2846; assay: 3H radioligand competition, AD Tissue 2846; format: binding; settings: hot concentration 2 nM
# Procedure: as §1
# [5] = system: Banner AD tissue; assay: Homologous competition radioligand binding assay, AD tissue; design: species or system human; settings: [18F]28
# Procedure: (§2) The equilibrium dissociation constant (Kd) for a series of compounds was determined using direct radioactive competitive binding assays (homologous or heterologous) with either recombinant α-synuclein fibrils or brain tissue homogenates from AD cases.
# Brain tissue samples were selected from an autopsy case series of patients evaluated for parkinsonism by movement disorders specialists at the Movement Disorders Center of Washington University School of Medicine in St. Louis. […] Dementia was determined by a movement disorders specialist based on clinical assessment of cognitive dysfunction sufficiently severe to impair activities of daily living, with further evaluation of cognitive impairment using the AD8 and Mini-Mental Status Exam (MMSE) [Galvin, J. E., et al., “The AD8: a brief informant interview to detect dementia,” 2005, Neurology 65:559-564; Folstein, M. F., et al., ““Mini-mental state”. […] LB stage was assessed at autopsy using a PD staging scale (range: 0, 1-6) [Braak, H., et al., “Stages in the development of Parkinson's disease-related pathology,” 2004, Cell Tissue Res., 318:121-134]. PD cases were selected based on a clinical diagnosis of PD plus dementia, Braak LB stage 5-6 pathology, and the absence of significant Aβ or tau pathology determined by immunohistochemistry. […]
# [6] = biological target: T2, α-synuclein fibrils (Homo sapiens (Human), UniProt P37840); assay: Direct radioligand binding assay of [18F]28, α-synuclein fibrils; settings: α-synuclein fibrils
# Procedure: as §2
# (§3) Recombinant protein was produced in E. coli using protocols based on previously described methods for α-synuclein [Giasson, B. I., et al., “Mutant and wild type human alpha-synucleins assemble into elongated filaments with distinct morphologies in vitro,” 1999, J Biol. Chem., 274:7619-7622; Huang, C., et al., “A new method for purification of recombinant human alpha-synuclein in Escherichia coli,” 2005, Protein Expr Purif, 42:173-177; Yu, L., et al, “Synthesis and in vitro evaluation of á-synuclein ligands,” 2012, Bioorg. […]
# (§4) Purified recombinant α-synuclein monomer (2 mg/ml) was incubated in 20 mM Tris-HCl, pH 8.0, 100 mM NaCl for 72 h at 37 C with shaking at 1000 rpm in an Eppendorf Thermomixer. […] The concentration of α-synuclein monomer in the supernatant was determined in a BCA protein assay according to the manufacturer's instructions, using a bovine serum albumin (BSA) standard curve. The measured decrease in α-synuclein monomer concentration was used to determine the concentration of fibrils in the 72 h fibril reaction mixture. […]
# [7] = system: α-synuclein fibrils; assay: as above; design: species or system human; settings: comparison of Kd on fibrils and AD tissue
# Procedure: as §2, §3, §4
# [8] = biological target: T2, α-synuclein fibrils; assay: Thioflavin T fluorescence competitive assay; settings: read-out: Thioflavin T assay Ki; competition with ThT on recombinant α-synuclein fibrils; at least three experiments
# Procedure: α-Synuclein recombinant protein was produced in E. coli. BL21(DE3)RIL E. coli were transformed with a pRK172 bacterial expression plasmid containing the human α-synuclein coding sequence. […] Overnight cultures were pelleted by centrifugation at 3,900×g for 10 min at 25° C. Bacterial pellets were resuspended in 20 mL osmotic shock buffer (30 mM Tris-HCl, 2 mM EDTA, 40% sucrose, pH 7.2) by gentle vortexing and incubated at room temperature for 10 minutes. The cell suspension was then centrifuged at 8,000×g for 10 min at 25° C. and the pellet was resuspended in 22.5 mL cold H2O before adding 9.4 μL 2 M MgCl2 to each tube. The suspension was incubated on ice for 3 min prior to centrifugation at 20,000×g for 15 min at 4° C. The supernatant was transferred to a fresh tube, streptomyocin was added to a final concentration of 10 mg/mL, and then centrifuged at 20,000×g for 15 min at 4° C. The supernatant from this step was collected and dithiothreitol (DTT) and Tris-HCl were added to final concentrations of 1 mM and 20 mM respectively, before boiling for 10 min to precipitate heat-sensitive proteins, which were pelleted at 20,000×g for 15 minutes at 4° C. The supernatant was collected and filtered through a 0.45 μm surfactant free cellulose acetate filter (Corning, Corning, NY) before loading onto a 1 mL DEAE Sepharose column equilibrated in 20 mM Tris-HCl pH 8, 1 mM EDTA, and 1 mM DTT. The DEAE column was washed with 20 mM Tris-HCl pH 8, 1 mM EDTA, 1 mM DTT before eluting α-synuclein protein in 20 mM Tris-HCl, pH 8, buffer with 1 mM EDTA, 1 mM DTT and 0.3 M NaCl. The purified α-synuclein protein was dialyzed overnight in 10 mM Tris-HCl, pH 7.6, 50 mM NaCl, and 1 mM DTT.
# The purified, recombinant α-synuclein monomer (2 mg/mL) was incubated in Tris-HCl (20 mM) and NaCl (100 mM) while shaking at 1000 rpm in an Eppendorf Thermomixer in a 37° C. temperature-controlled room for 72 hours. To determine the concentration of fibrils, the reaction mixture (100 μL) was centrifuged at 18,000×g for 10 minutes to separate fibrils from monomer. The α-synuclein monomer and other soluble proteins in the supernatant were removed, and the fibril pellet was resuspended in 100 μL solution of Tris-HCl (20 mM) and NaCl (100 mM). This fibril suspension was used in a bicinchoninic acid (BCA) protein assay along with a bovine serum albumin (BSA) standard curve to determine the concentration of fibrils in the 72 hour fibril reaction mixture.
# To prepare the fibrils for performing binding assays, the fibril reaction mixture prepared above was centrifuged at 18,000×g for 10 minutes. The supernatant was discarded and the fibril pellet was resuspended in Tris-HCl buffer (30 nM, pH=7.4) to achieve the desired concentration (3 or 6 μM) of fibrils for use in the assay.
# The ThT solution (6 μM) in Tris-HCl buffer (30 nM, pH=7.4, 40 μL) was added to each of three cells in a 96 cell plate for fluorescence detection containing α-synuclein fibrils suspension (3.0 μM) in the Tris-HCl buffer (30 nM, pH=7.4, 40 μL). The mixture was incubated at room temperature for 1 hour on the shaking plate. The reaction plate was scanned by the excitation wavelength range from 430 to 465 nm. The maximum excitation wavelength (λex) was determined according to the fluorescent intensity-excitation wavelength curve.
# [9] = biological target: Banner seeded fibrils (Homo sapiens (Human), UniProt P37840); assay: Saturation binding of [125I]TZ61-84 to Banner seeded fibrils
# Procedure: The binding efficacy (Kd) of TZ-61-84 was determined using a modified protocol. Specifically, saturation plots of radiolabeled [^125I]TZ61-84 were obtained measuring total and nonspecific binding of TZ61-84 to 100 nM Banner seeded fibrils. The results are depicted in FIG. 15B-15D and that TZ61-84 has a high binding affinity to α-synuclein (Kd<1 nM).
# [10] = biological target: T1, PD-seeded fibrils; assay: Heterologous competition binding assay with [18F]TZ61-44 as radioligand; settings: radioligand [18F]TZ61-44, 25 nM PD-seeded fibrils; for Ki: Cheng-Prusoff from EC50
# Procedure: (§5) The equilibrium inhibitor constant (Ki) of a series of compounds was measured using heterologous radioactive binding assays with [^18F]TZ61-44, […], or [^125I]TZ61-84 as the screening radioligands. EC50 values for each compound were determined by fitting the data to the equation Y=Bottom+(Top−Bottom)/(1+(X−Log EC50)^−Hillcoefficient) using nonlinear regression by Kaleidagraph software, where Top and Bottom are the Y values for the top and bottom plateaus of the binding curve. The Ki values were derived from the EC50 values using the Cheng-Prusoff equation: Ki=EC50/(1+[radioligand]/Kd). FIGS. 5A-5E show the inhibition curves for TG-1-90B, TZ55-101, TZ61-84, TZ55-107, and TZ55-81 using [^18F]TZ61-44 as the radioligand. FIG. 11B-C show the inhibition curves for two separate experiments on PD fibrils for TZ55-101 using […] as the radioligand. FIGS. 12A-12F show the inhibition curves for TZ66-3, TZ64-015, TZ64-016, TZ64-018, TZ64-019, and TZ64-020 using [^18F]TZ61-44 as the radioligand. FIGS. 13A-13D show the inhibition curves for TZ66-9, TZ66-8, and TZ55-107 using [^18F]TZ61-44 as the radioligand.
# [11] = system: Banner PD tissue; assay: Specific binding of TZ61-84: displacement of [18F]TZ-61-84 from tissue; settings: [18F]TZ-61-84 at 0.0195 nM
# Procedure: (§6) TZ61-84 was screened for binding to Banner PD tissue, AD tissue, α-synuclein fibrils, Aβ fibrils and in controls by measuring how well it displaced [^18F]TZ-61-84 (at 0.0195 nM) from each substrate.
# [12] = biological target: T2, α-synuclein fibrils; assay: Specific binding of TZ61-84: displacement of [18F]TZ-61-84 from fibrils; settings: [18F]TZ-61-84 at 0.0195 nM
# Procedure: as §6
# [13] = biological target: PD fibrils (Homo sapiens (Human), UniProt P37840); assay: Heterologous competition binding assay with [11C]Tg-1-90B as radioligand; settings: radioligand Tg-1-90-B
# Procedure: as §5
# [14] = system: AD Tissue 6843; assay: Heterologous competition binding assay with [11C]Tg-1-90-B, AD tissue; settings: radioligand [11C]Tg-1-90-B
# Procedure: FIG. 11D is a plot of a heterologous competition binding assay of TZ55-101 in the presence of the radioligand [^11C]Tg-1-90-B and AD tissue 6843.
# as §5
# The binding to AD fibrils was also assessed for TZ55-101 in FIG. 11D.
compound,measurement,setting,value
COc1ccc2nc(-c3noc(-c4ccc(-n5cccn5)cc4)n3)ccc2c1 [TZ46-148],Ki,[1],82 nM
same,Ki,[2],17 nM
same,Ki,[3],13 nM
same,Ki,[4],7 nM
"COc1cc(-c2nc(-c3ccc4cc(OCCF)ccc4n3)no2)ccn1 [Compound 28, 3-(6-(2-Fluoroethoxy)quinolin-2-yl)-5-(2-methoxypyridin-4-yl)-1,2,4-oxadiazole]",Bmax,[5],1082 pmol/mg
same,Kd,[5],25 nM
same,Kd,[6],18 nM
same,selectivity for α-synuclein fibrils over AD tissues,[7],lacks selectivity
same,Ki,[8],17 nM
COc1ccc(Nc2ccc3cc(OC/C=C/I)ccc3n2)cn1 [TZ61-84],Kd,"[9]; 100 nM Banner seeded fibrils, saturation binding",0.34 nM and 0.5 nM
same,Kd,"[9]; 100 nM fibrils, saturation plot, unit inferred",0.338 nM and 0.496 nM
same,Bmax,"[9]; 100 nM fibrils, saturation plot, unit not given, listed as [^125I]TZ61-84",259.7 and 310.5
same,EC50,[10],17 nM
same,Ki,[10],16 nM
same,affinity for PD Banner tissue compared to AD Banner tissue,[11],high affinity
same,affinity for α-synuclein fibrils over Aβ fibrils,[12],slightly more affinity
COc1ccc(-c2ccc3cc(-c4cnc5ccccc5c4)ccc3n2)cn1 [TZ55-101],EC50,[10],15 nM
same,Ki,[10],14 nM
same,EC50,[13],21 nM and 11 nM
same,Ki,[13]; Cheng-Prusoff from EC50,20 nM and 10 nM
same,affinity for AD fibrils,[14],did not show significant affinity
